Test results from PMC5298231, “The Malaria Parasite's Lactate Transporter PfFNT Is the Target of Antiplasmodial Compounds Identified in Whole Cell Phenotypic Screens” (PLoS Pathogens, 2017).

Assays:
[1] = test system: Dd2 parent parasites; assay: Parasite proliferation assay, Dd2 parent; type: cell-based, Plasmodium falciparum; details: Dd2 parent; mean ± SEM; read-out: IC50 value, growth inhibition
Description: Parasite proliferation was measured in 96-well plates using a fluorescent DNA-intercalating dye [45]. The assays were initiated with erythrocytes infected with predominantly ring-stage parasites, and the starting parasitaemia was 0.5–1% and the haematocrit was 1%.

[2] = test system: isolated 3D7 P. falciparum trophozoites; assay: L-[14C]lactate uptake by isolated 3D7 trophozoites; details: pH 6.1, 4°C, 20 s
[3] = test system: non-injected oocytes; type: cell-based, Xenopus laevis; details: full range of inhibitor concentrations
[4] = biological target: T1, PfFNT^Gly107Ser (Plasmodium falciparum, UniProt O77389, G107S); assay: PfFNT-mediated L-[14C]lactate uptake by Xenopus oocytes expressing PfFNT Gly107Ser; type: cell-based; details: PfFNT Gly107Ser in Xenopus oocytes; pH 6.4, 27.5°C, 10 min; mean ± SEM, n = 4; read-out: IC50, inhibition of PfFNT-mediated L-[14C]lactate transport
T1 construct: expressed in transfected cells; host or cells: Xenopus laevis oocytes (cRNA microinjected, 30 ng)
T1 sequence (O77389 1-309 G107S): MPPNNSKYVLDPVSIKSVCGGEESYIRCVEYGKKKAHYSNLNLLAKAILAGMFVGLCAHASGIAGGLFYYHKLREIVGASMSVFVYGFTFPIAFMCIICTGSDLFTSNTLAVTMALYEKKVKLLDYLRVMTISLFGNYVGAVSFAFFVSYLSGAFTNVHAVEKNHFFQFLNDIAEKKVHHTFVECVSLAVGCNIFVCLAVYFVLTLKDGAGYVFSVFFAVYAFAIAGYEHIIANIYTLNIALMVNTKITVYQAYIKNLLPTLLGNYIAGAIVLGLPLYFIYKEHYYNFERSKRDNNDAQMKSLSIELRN
Description: (§1) The PfFNT-mediated uptake of L-[^14C]lactate by oocytes expressing native PfFNT (black symbols) or oocytes expressing PfFNT^Gly107Ser (white symbols) was measured in the presence of a range of different concentrations of MMV007839 (A) and MMV000972 (B). […] To enable a visual comparison between the native PfFNT and PfFNT^Gly107Ser datasets, only part of the concentration range used for the latter is shown in the main panels. The insets show the data obtained for PfFNT^Gly107Ser over the full concentration range tested. In all cases, the data are averaged from four independent experiments (using oocytes from different frogs) and are shown ± SEM. The uptake was measured at 27.5°C over 10 min at pH 6.4 using 2.7 μM L-[^14C]lactate and 600 μM unlabelled L-lactate.
(§2) The oocyte expression vectors containing PfFNT, PfENT1 and PfCRT were made previously. […] The uptake of radiolabelled substrates was measured 2–5 days post-injection at 27.5°C in ND96 buffer (containing 96 mM NaCl, 2 mM KCl, 1 mM MgCl2, 1.8 mM CaCl2, 10 mM MES and 10 mM Tris-base; pH-adjusted to the value specified in the relevant Figure legends). […] The oocytes were then transferred to separate wells of a 96-well plate, lysed with 10% SDS, and the radioactivity measured as described previously.

[5] = test system: Dd2 parental parasites; assay: L-[14C]lactate uptake by isolated Dd2 parental parasites; details: read-out: IC50, inhibition of L-[14C]lactate uptake; Dd2 (parental) parasites; pH 6.1, 4°C, 20 s; mean ± SEM
[6] = test system: MMV007839-selected culture A (PfFNT Gly107Ser); assay: Parasite proliferation assay, MMV007839-selected culture A; type: cell-based, Plasmodium falciparum
Description: (§3) Parasite proliferation was measured in 96-well plates using a fluorescent DNA-intercalating dye. The assays were initiated with erythrocytes infected with predominantly ring-stage parasites, and the starting parasitaemia was 0.5–1% and the haematocrit was 1%.
(§4) For MMV007839-selected culture A, the drug concentration was increased by 5 nM increments on Day 18, Day 21, and every two days thereafter. […] The cultures were provided with fresh medium and blood and diluted to reduce the parasitaemia as needed.

[7] = test system: PfENT1; assay: [3H]hypoxanthine uptake by Xenopus oocytes expressing PfENT1; type: cell-based, Plasmodium falciparum
Description: (§5) (PfCRT; from the chloroquine-resistant Dd2 strain) and on [^3H]hypoxanthine transport by oocytes expressing the P. falciparum equilibrative nucleoside/nucleobase transporter PfENT1 [27, 28].
The oocyte expression vectors containing PfFNT, PfENT1 and PfCRT were made previously. The Gly107Ser mutant form of PfFNT was generated through site-directed mutagenesis of the oocyte expression vector containing wild-type (3D7) PfFNT using primers 9 and 10 (S2 Table). Oocytes were harvested from adult female Xenopus laevis frogs and prepared as described previously. cRNA was made using the mMessage mMachine T7 transcription kit and the MEGAclear kit (Ambion) and microinjected into oocytes as outlined elsewhere. The amount of cRNA injected (per oocyte) was 30 ng for PfFNT, 10 ng for PfENT1, and 20 ng for PfCRT. The uptake of radiolabelled substrates was measured 2–5 days post-injection at 27.5°C in ND96 buffer (containing 96 mM NaCl, 2 mM KCl, 1 mM MgCl2, 1.8 mM CaCl2, 10 mM MES and 10 mM Tris-base; pH-adjusted to the value specified in the relevant Figure legends). […] Each experiment used ten oocytes for each condition tested. The influx of the radiolabelled substrate was halted by removing the reaction buffer and washing the oocytes twice in ice-cold ND96 buffer (3.5 mL). The oocytes were then transferred to separate wells of a 96-well plate, lysed with 10% SDS, and the radioactivity measured as described previously.
The data are averaged from four to five independent experiments (performed using oocytes from different frogs) and are shown + SEM. In B, the uptake of [^3H]hypoxanthine (0.36 μM) was measured over 30 min at pH 6.0. […] The data are averaged from three to six independent experiments (performed using oocytes from different frogs) and are shown + SEM. […] (TIF) Click here for additional data file.

[8] = test system: 3D7 P. falciparum trophozoites; assay: Cytosolic pH (pHcyt) measurement in BCECF-loaded saponin-isolated trophozoites
[9] = ref [36]; cited from earlier work
[10] = biological target: T2, native PfFNT (Plasmodium falciparum, UniProt O77389); type: cell-based; details: native PfFNT in Xenopus oocytes; pH 6.4, 27.5°C, 10 min; mean ± SEM, n = 4; read-out: IC50, inhibition of PfFNT-mediated L-[14C]lactate transport
T2 construct: expressed in transfected cells; host or cells: Xenopus laevis oocytes (cRNA microinjected, 30 ng)
T2 sequence (O77389 whole entry): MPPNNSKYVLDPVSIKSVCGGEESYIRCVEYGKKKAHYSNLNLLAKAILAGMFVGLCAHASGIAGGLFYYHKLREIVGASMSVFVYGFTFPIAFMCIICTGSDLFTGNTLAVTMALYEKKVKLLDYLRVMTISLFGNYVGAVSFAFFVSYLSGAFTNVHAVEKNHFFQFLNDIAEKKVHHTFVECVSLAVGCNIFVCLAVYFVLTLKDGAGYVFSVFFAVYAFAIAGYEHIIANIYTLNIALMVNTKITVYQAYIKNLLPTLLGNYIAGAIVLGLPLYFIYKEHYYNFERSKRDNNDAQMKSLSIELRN
Description: as §1, §2

[11] = test system: PfFNT^Gly107Ser mutant parasites (MMV007839-selected culture B); assay: L-[14C]lactate uptake by isolated PfFNT Gly107Ser mutant parasites; details: read-out: IC50, inhibition of L-[14C]lactate transport, pH 6.1, 4°C, 20 s, mean ± SEM
[12] = test system: MMV007839-selected culture B (PfFNT Gly107Ser); assay: Parasite proliferation assay, MMV007839-selected culture B; type: cell-based, Plasmodium falciparum; details: MMV007839-selected culture B; mean ± SEM; read-out: IC50 value, growth inhibition
Description: as §3, §4

[13] = test system: PfCRT (from the chloroquine-resistant Dd2 strain); assay: [3H]chloroquine uptake by Xenopus oocytes expressing PfCRT; type: cell-based, Plasmodium falciparum; details: 1 μM and 4 μM; pH 5.5
Description: as §5
The oocyte expression vectors containing PfFNT, PfENT1 and PfCRT were made previously. The Gly107Ser mutant form of PfFNT was generated through site-directed mutagenesis of the oocyte expression vector containing wild-type (3D7) PfFNT using primers 9 and 10 (S2 Table). Oocytes were harvested from adult female Xenopus laevis frogs and prepared as described previously. cRNA was made using the mMessage mMachine T7 transcription kit and the MEGAclear kit (Ambion) and microinjected into oocytes as outlined elsewhere. […] The uptake of radiolabelled substrates was measured 2–5 days post-injection at 27.5°C in ND96 buffer (containing 96 mM NaCl, 2 mM KCl, 1 mM MgCl2, 1.8 mM CaCl2, 10 mM MES and 10 mM Tris-base; pH-adjusted to the value specified in the relevant Figure legends). […] The oocytes were then transferred to separate wells of a 96-well plate, lysed with 10% SDS, and the radioactivity measured as described previously.
The data are averaged from four to five independent experiments (performed using oocytes from different frogs) and are shown + SEM. In B, the uptake of [^3H]hypoxanthine (0.36 μM) was measured over 30 min at pH 6.0. […]

[14] = test system: 3D7 parasites; details: ref http://www.mmv.org/research-development/malaria-box-supporting-information; read-out: IC50 against 3D7 parasites, other groups; cited from earlier work

O=C1CC(O)(C(F)(F)C(F)(F)F)Oc2ccccc21 (stereo not drawn) [MMV000972]
IC50 [1]: 1.8 ± 0.2 µM
Inhibition of L-[14C]lactate influx ([2]; 0.5 μM): complete inhibition
Inhibition of L-[14C]lactate uptake ([2]; 2 μM): complete inhibition
Effect on L-[14C]lactate transport into control (non-injected) oocytes [3]: no changes
IC50 [4]: 6.3 ± 0.9 µM
IC50 [5]: 0.049 ± 0.014 µM
IC50 ([6]; MMV007839-selected culture A, mean ± SEM, read-out: IC50 value, growth inhibition): 59.6 ± 0.4 µM
Fold increase of growth IC50 relative to Dd2 parent ([6]; both MMV007839-selected cultures (A and B) vs Dd2 parent): > 30 fold
Inhibition of [3H]hypoxanthine uptake by PfENT1-expressing oocytes ([7]; 1 μM and 4 μM, pH 6.0, 30 min): not inhibiting
Effect on [3H]hypoxanthine uptake by PfENT1-expressing oocytes ([7]; 1 μM, P < 0.05): slight increase
Lactate-induced abrupt acidification of parasite cytosol after pre-treatment ([8]; 2.5 μM pre-treatment, 10 mM L-lactate, 4°C): no such abrupt acidification
Rate of cytosolic acidification after addition of lactate ([8]; 2.5 μM, 4°C, 10 mM L-lactate, mean ± SEM, n = 3): 0.015 ± 0.006 pH unit/min
Rate of cytosolic acidification before addition of lactate ([8]; 2.5 μM, 4°C, mean ± SEM, n = 3): 0.012 ± 0.003 pH unit/min
Cytosolic pH restored after restoration of glucose ([8]; 2.5 μM, glucose (22 mM) restored to glucose-deprived parasites, gradual alkalinisation after initial acidification of ~2 min): approximately 7.1
Effect on cytosolic pH in glucose-containing medium ([8]; glucose-containing medium, 37°C (Fig 2B,C: 1 μM)): cytosolic acidification
Toxicity in Malaria Box toxicity testing [9]: display toxicity in some assays
IC50 [10]: 0.05 ± 0.001 µM
IC50 [11]: 15.2 ± 1.9 µM
IC50 [12]: 59.7 ± 1.4 µM
Effect on transport of [3H]chloroquine via PfCRT [13]: not inhibiting
IC50 [14]: 2.6 µM
